In US10786508B2, “Substituted imidazo[1,5-A]-pyrimidines and their use in the treatment of medical disorders” (Lysosomal Therapeutics Inc., priority 2014, dated 2020):
Converted amounts (≈) assume the structure as drawn.

Assays:
[1] = target: T1, glucocerebrosidase (Gcase) (Homo sapiens, UniProt P04062); assay: Glucocerebrosidase (Gcase) activation assay, 4-methylumbelliferyl-beta-D-glucopyranoside substrate, with saposin C; assay type: biochemical; details: 10 nM GCase, 100 nM saposin C, pH 4.7; for activation at 0.1 µM: 0.1 μM test compound, read-out: Percent Gease Activation 0.1 μM Test Compound; for activation at 1 µM: 1 μM test compound, read-out: Percent Gease Activation 1 μM Test Compound
T1 construct: micellar solution containing 10 nM GCase and 100 nM saposin C
T1 sequence (P04062 40-536): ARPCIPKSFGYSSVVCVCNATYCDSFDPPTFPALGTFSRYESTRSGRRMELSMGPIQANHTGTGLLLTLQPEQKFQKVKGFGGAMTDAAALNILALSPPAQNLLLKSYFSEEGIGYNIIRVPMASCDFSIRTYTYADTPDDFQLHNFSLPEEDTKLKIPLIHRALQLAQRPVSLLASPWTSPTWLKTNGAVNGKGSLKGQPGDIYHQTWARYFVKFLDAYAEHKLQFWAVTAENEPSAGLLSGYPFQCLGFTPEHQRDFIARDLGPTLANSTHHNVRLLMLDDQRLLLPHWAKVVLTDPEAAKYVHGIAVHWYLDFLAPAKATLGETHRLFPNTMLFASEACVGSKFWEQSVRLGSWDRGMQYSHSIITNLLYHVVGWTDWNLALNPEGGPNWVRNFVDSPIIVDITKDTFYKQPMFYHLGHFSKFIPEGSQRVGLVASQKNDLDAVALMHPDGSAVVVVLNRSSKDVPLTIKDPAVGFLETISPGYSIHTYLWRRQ
Description: The ability of exemplary compounds to activate glucocerebrosidase (Gcase) was measured.
A 484 μL aliquot of a 1.0 mg/mL solution of phosphatidylserine (PS) (Sigma P7769) in chloroform was evaporated under a stream of nitrogen for 1 hour. The lipid film was dissolved over 4 minutes of vigorous vortexing in 40 mL of 176 mM K2HPO4/50 mM citric acid (pH 4.7) containing 7.5 μL of triton X-100, resulting in a mixed micellar preparation with a composition of 0.32 mM triton and 0.37 mol % PS. 4-Methylumbelliferyl-beta-D-glucopyranoside (ACROS-337025000) was dissolved in the micellar solution to a final concentration of 2 mM for use as the reaction substrate.
Test compounds were diluted to the desired concentrations with dimethylsulfoxide (DMSO) from 10 mM stocks, and 0.41 μL of the DMSO compound mixture was added to 100 μL of micellar solution containing 10 nM GCase and 100 nM saposin C (Enzo ALX-201-262-C050). Pre-incubation was allowed to occur for 30 minutes at room temperature, after which the reaction was initiated by combining 25 μL of substrate solution with 25 μL of compound/GCase/saposin mixture. The reaction proceeded for 15 minutes at room temperature and was stopped by adding 150 μL of 1M glycine, pH 12.5. The endpoint of the reaction was monitored by measuring fluorescence intensity (excitation: 365 nm; emission: 440 nm) on a SpectraMax i3 instrument (Molecular Devices). Test compounds were screened at 1.0 and 0.1 μM final concentration, and subsequent 8-point dose response curves were obtained using 3-fold dilutions from a maximum final concentration of 5 μM.
For experiments in which the test compound was used at a concentration of 1.0 μM, the symbol “+” indicates less than 30% Gcase activation; the symbol “++” indicates Gcase activation in the range of 30% up to 60%; and the symbol “+++” indicates Gcase activation greater than 60%. For experiments in which the test compound was used at a concentration of 0.1 μM, the symbol “*” indicates less than 10% Gcase activation; the symbol “**” indicates Gcase activation in the range of 10% up to 20%; and the symbol “***” indicates greater than 20% Gcase activation.

[2] = Compound solubility in water; assay type: physicochemical

| Compound | activation at 0.1 µM [1] | activation at 1 µM [1] | solubility [2] | Compound Solubility in Water [2] |
| --- | --- | --- | --- | --- |
| Cc1cc(C)n2cnc(C(=O)NC3CCCc4ccccc43)c2n1 (stereo not drawn) [III-71] | < 10% | 30 to 60% | 70.7 µg/mL (≈ 221 µM) |  |
| Cc1cc(C(F)(F)F)nc2c(C(=O)NC3(C)CCCc4ccccc43)ncn12 (stereo not drawn) [III-34] | < 10% | < 30% | 24.9 µg/mL (≈ 64.1 µM) |  |
| CCOCc1cccc(C(C)(C)NC(=O)c2ncn3c(C4CC4)cc(COC)nc23)c1 [III-73] | < 10% | < 30% | 31.6 µg/mL (≈ 74.8 µM) |  |
| Cc1cc(C)n2cnc(C(=O)Nc3ccc(Cl)c(COc4cccnc4)c3)c2n1 [III-23] | 10 to 20% | > 60% | 0.3 µg/mL (≈ 0.736 µM) |  |
| C#Cc1cccc(C(C)(C)NC(=O)c2ncn3c(C)cc(C)nc23)c1 [III-41] | 10 to 20% | > 60% | 7.6 µg/mL (≈ 22.9 µM) |  |
| [2H]C1(NC(=O)c2ncn3c(C)cc(C)nc23)CCCCc2ccccc21 (stereo not drawn) [III-38] | 10 to 20% | > 60% | 14.9 µg/mL (≈ 44.4 µM) |  |
| Cc1cc(C(C)C)n2cnc(C(=O)Nc3cccc4c3CCC4)c2n1 [III-45] | > 20% | > 60% | 1 µg/mL (≈ 2.99 µM) |  |
| COc1ccccc1[C@@H](C)NC(=O)c1ncn2c(C)cc(C)nc12 [III-76] | < 10% | 30 to 60% | 23 µg/mL (≈ 70.9 µM) |  |
| Cc1cc(C)n2cnc(C(=O)N[C@@H](C)c3ccccc3F)c2n1 [III-74] | < 10% | < 30% | 37.3 µg/mL (≈ 119 µM) |  |
| COCc1cc(C(C)C)n2cnc(C(=O)NC(C)(C)c3cccc(OC4CC4)c3)c2n1 [III-57] | 10 to 20% | > 60% | 38.5 µg/mL (≈ 91.1 µM) |  |
| CCCCO[C@H]1[C@@H]2CC[C@H]1C[C@@H](NC(=O)c1ncn3c(C)cc(C)nc13)C2 [III-85] | < 10% | > 60% | 13.1 µg/mL (≈ 35.4 µM) |  |
| CCCCO[C@H]1C[C@H]2CC[C@@H](C1)[C@H]2NC(=O)c1ncn2c(C)cc(C)nc12 [III-84] | > 20% | > 60% | 0.2 µg/mL (≈ 0.54 µM) |  |
| CCCOc1cccc(C(C)(C)NC(=O)c2ncn3c(COC)cc(C4CC4)nc23)c1 [III-51] | > 20% | > 60% | 10.5 µg/mL (≈ 24.9 µM) |  |
| Cc1cc(C)n2cnc(C(=O)Nc3ccc4nccc(O)c4c3)c2n1 [III-24] | < 10% | < 30% | 6 µg/mL (≈ 18 µM) |  |
| CO[C@H]1CC[C@@H](C(C)(C)NC(=O)c2ncn3c(C)cc(C)nc23)CC1 [III-63] | < 10% | 30 to 60% | 36.2 µg/mL (≈ 105 µM) |  |
| Cc1cc(C)n2cnc(C(=O)Nc3ccc4nc(C)oc4c3)c2n1 [III-15] | < 10% | < 30% | 3 µg/mL (≈ 9.34 µM) |  |
| CCCCCOc1ccc(NC(=O)c2ncn3c(C)cc(C)nc23)cc1 [III-28] | > 20% | > 60% | 0.3 µg/mL (≈ 0.851 µM) |  |
| Cc1cc(C)n2cnc(C(=O)Nc3ccc(-c4ccco4)nc3)c2n1 [III-66] | < 10% | < 30% | < 0.01 µg/mL |  |
| Cc1cc(C(C)C)n2cnc(C(=O)NC3(C)CCOc4c(F)cccc43)c2n1 (stereo not drawn) [III-37] | < 10% | 30 to 60% | 28 µg/mL (≈ 73.2 µM) |  |
| CCOCc1cccc(C(C)(C)NC(=O)c2ncn3c(C(C)C)cc(COC)nc23)c1 [III-60] | < 10% | < 30% | 31.2 µg/mL (≈ 73.5 µM) |  |
| CCOc1ccc(C(C)NC(=O)c2ncn3c(C)cc(C)nc23)cc1 (stereo not drawn) [III-80] | < 10% | < 30% | 25.9 µg/mL (≈ 76.5 µM) |  |

| Compound | activation at 0.1 µM [1] | activation at 1 µM [1] | solubility [2] | Compound Solubility in Water [2] |
| --- | --- | --- | --- | --- |
| Cc1cc(C)n2cnc(C(=O)NC3(C)CCCc4ccccc43)c2n1 (stereo not drawn) [III-36] | < 10% | > 60% | 11.9 µg/mL (≈ 35.6 µM) |  |
| Cc1cc(C)n2cnc(C(=O)Nc3ccc4c(c3)CC(=O)N4)c2n1 [III-10] | < 10% | < 30% | 6.4 µg/mL (≈ 19.9 µM) |  |
| C#Cc1ccc(NC(=O)c2ncn3c(C)cc(C)nc23)cc1 [III-1] | 10 to 20% | > 60% | < 1.5 µg/mL |  |
| CCCOc1cccc(C(C)(C)NC(=O)c2ncn3c(COC)cc(COC)nc23)c1 [III-52] | 10 to 20% | > 60% | 37.6 µg/mL (≈ 88.2 µM) |  |
| COCc1cc(C2CC2)n2cnc(C(=O)NC(C)(C)c3cccc(OC4CC4)c3)c2n1 [III-55] | 10 to 20% | > 60% | 26.3 µg/mL (≈ 62.5 µM) |  |
| Cc1cc(C)n2cnc(C(=O)Nc3ccc4nccc(O)c4c3)c2n1 [III-25] | < 10% | < 30% |  | 3.8 µg/mL |
| Cc1cc(C)n2cnc(C(=O)Nc3ccc4oc(-c5ccncc5)nc4c3)c2n1 [III-19] | < 10% | 30 to 60% | 0.3 µg/mL (≈ 0.78 µM) |  |
| CCCOc1cccc(C(C)(C)NC(=O)c2ncn3c(C4CC4)cc(COC)nc23)c1 [III-50] | 10 to 20% | > 60% | 31.3 µg/mL (≈ 74.1 µM) |  |
| CCCOc1cccc(C(C)(C)NC(=O)c2ncn3c(COC)c(OC)c(C)nc23)c1 [III-53] | < 10% | 30 to 60% | 52.9 µg/mL (≈ 124 µM) |  |
| Cc1cc(C)n2cnc(C(=O)Nc3ccc(-c4cccs4)nc3)c2n1 [III-29] | 10 to 20% | > 60% | 0.4 µg/mL (≈ 1.14 µM) |  |
| Cc1cc(C)n2cnc(C(=O)Nc3ccc4c(C)cc(=O)oc4c3)c2n1 [III-9] | < 10% | < 30% | 0.3 µg/mL (≈ 0.861 µM) |  |
| Cc1cc(C)n2cnc(C(=O)Nc3ccc(C)c(-c4ncco4)c3)c2n1 [III-26] | 10 to 20% | > 60% | 0.5 µg/mL (≈ 1.44 µM) |  |
| COCc1cc(C2CC2)n2cnc(C(=O)NC(C)(C)c3cccc(C#N)c3)c2n1 [III-54] | < 10% | < 30% | 23.4 µg/mL (≈ 60.1 µM) |  |
| Cc1cc(C)n2cnc(C(=O)Nc3ccc(Cl)c(-c4cnco4)c3)c2n1 [III-27] | < 10% | 30 to 60% | 0.2 µg/mL (≈ 0.544 µM) |  |
| CCCCO[C@@H]1[C@@H]2CC[C@H]1C[C@@H](NC(=O)c1ncn3c(C)cc(C)nc13)C2 [III-86] | 10 to 20% | > 60% | 14.6 µg/mL (≈ 39.4 µM) |  |
| CCOCc1cccc(C(C)(C)NC(=O)c2ncn3c(COC)cc(C(C)C)nc23)c1 [III-61] | < 10% | 30 to 60% | 20.6 µg/mL (≈ 48.5 µM) |  |
| C#Cc1ccc(C(C)(C)NC(=O)c2ncn3c(C)cc(C)nc23)cc1 [III-42] | < 10% | 30 to 60% | 18.7 µg/mL (≈ 56.3 µM) |  |
| Cc1cc(C)n2cnc(C(=O)Nc3ccc4[nH]c(-c5ccco5)nc4c3)c2n1 [III-20] | < 10% | < 30% | 0.3 µg/mL (≈ 0.806 µM) |  |
| COc1cc(NC(=O)c2ncn3c(C)cc(C)nc23)ccc1-c1cnco1 [III-14] | < 10% | < 30% | 0.5 µg/mL (≈ 1.38 µM) |  |
| CCC(C)(NC(=O)c1ncn2c(C)cc(C)nc12)c1ccc(F)cc1 (stereo not drawn) [III-43] | 10 to 20% | > 60% | 14.7 µg/mL (≈ 43.2 µM) |  |
